Results as given in ChEMBL document CHEMBL6127107, “Oleanolic acid derivatives against drug-resistant bacteria and fungi by multi-targets to avoid drug resistance” (Eur J Med Chem, 2024).
Converted amounts (≈) assume the structure as drawn. The source made the active and inactive calls. The calls are words filed in the database; no cut-off is given here.

Key:
[1] = tested on: Staphylococcus aureus; experiment: Antimicrobial activity against Staphylococcus aureus 10; format: functional
[2] = tested on: Staphylococcus aureus; experiment: Synergistic antibacterial activity against methicillin-resistant Staphylococcus aureus assessed as fractional inhibitory concentration index in presence of cefoxitin; format: functional
[3] = tested on: Staphylococcus aureus; experiment: Synergistic antibacterial activity against methicillin-resistant Staphylococcus aureus assessed as fractional inhibitory concentration index in presence of streptomycin; format: functional
[4] = tested on: Staphylococcus aureus; experiment: Synergistic antibacterial activity against methicillin-resistant Staphylococcus aureus assessed as fractional inhibitory concentration index in presence of norfloxacin; format: functional, organism-based
[5] = tested on: Staphylococcus aureus; experiment: Antibiofilm activity against methicillin-resistant Staphylococcus aureus assessed as decrease in biofilm density at 1 to 8 times of MIC incubated for 24 hrs by fluorescence microscopic analysis; format: functional, organism-based
[6] = tested on: Staphylococcus aureus; experiment: Selectivity ratio of MBEC for methicillin-resistant Staphylococcus aureus to MIC for methicillin resistant Staphylococcus aureus; format: functional
[7] = tested on: Cell membrane; experiment: Disruption of cell membrane integrity in methicillin-resistant Staphylococcus aureus assessed as increase in PI fluorescence at 2 to 8 times of MIC by PI staining based fluorescence analysis; format: subcellular
[8] = tested on: Cell membrane; experiment: Disruption of cell membrane integrity in Candida albicans; format: subcellular
[9] = tested on: Cell membrane; experiment: Disruption of cell membrane integrity in methicillin-resistant Staphylococcus aureus assessed as cell rupture at 2 to 4 times of MIC by scanning electron microscopic analysis; format: subcellular
[10] = tested on: DNA; experiment: Binding affinity to methicillin-resistant Staphylococcus aureus DNA assessed as change in DNA conformation by UV absorption based analysis; format: nucleic-acid assay
[11] = tested on: Staphylococcus aureus; experiment: Antibacterial activity against methicillin-resistant Staphylococcus aureus infected in cyclophosphamide-injected Kunming mouse model of skin wound infection assessed as wound scabbing at 2 to 4 mg/kg measured after 2 days by photographic analysis; format: functional, organism-based; settings: dose 2-4 mg/kg, time 2.0 day
[12] = tested on: Staphylococcus aureus; experiment: Antibacterial activity against methicillin-resistant Staphylococcus aureus infected in cyclophosphamide-injected Kunming mouse model of skin wound infection assessed as reduction in bacterial load in skin at 4 mg/kg measured after 7 days; format: functional; settings: time 7 day
[13] = tested on: Staphylococcus aureus; experiment: Antibacterial activity against methicillin-resistant Staphylococcus aureus infected in cyclophosphamide-injected Kunming mouse model of skin wound infection assessed as increase in IL-10 level in skin at 1 to 4 mg/kg administered for 7 days and measured on day 8; format: functional, organism-based; settings: dose 1-4 mg/kg, time 8.0 day

Q: For `CC(=O)O[C@H]1CC[C@]2(C)[C@H]3CC=C4[C@@H]5CC(C)(C)CC[C@]5(C(=O)NCCCNC(=N)N)CC[C@@]4(C)[C@]3(C)CC[C@H]2C1(C)C`, which MIC [1] is on record?
A: 1 µg/mL (≈ 1.68 µM)

Q: And the Activity [2]?
A: Active

Q: And the Activity [3]?
A: Active

Q: What about the Activity [4] of the same compound?
A: Active

Q: And the Activity [5]?
A: Dose-Dependent Effect

Q: And the selectivity ratio [6]?
A: 16

Q: What about the Activity [7] of the same compound?
A: Active

Q: What about the Activity [8] of the same compound?
A: Active

Q: And the Activity [9]?
A: Active

Q: What about the Activity [10] of the same compound?
A: Active

Q: And the Activity [11]?
A: Active

Q: What about the Activity [12] of the same compound?
A: 1.94 log10CFU/mg

Q: What about the Activity [13] of the same compound?
A: Active
